# Experimental data published in patent US20250002489A1, “BIFUNCTIONAL COMPOUNDS FOR DEGRADING ITK VIA UBIQUITIN PROTEOSOME PATHWAY” (NURIX THERAPEUTICS, INC., priority 2021, published 2025).
# Target: T1, ITK (Jurkat or Molt4 cells) (Homo sapiens, UniProt Q08881)
# T1 construct: either human Jurkat (Clone E6-1 ATCC TIB-152) or Motl4 (ATCC CRL-1552), were plated; endogenous in cells; host or cells: Jurkat Clone E6-1 (ATCC TIB-152) or Molt4 (ATCC CRL-1552)
# T1 sequence (Q08881 1-620): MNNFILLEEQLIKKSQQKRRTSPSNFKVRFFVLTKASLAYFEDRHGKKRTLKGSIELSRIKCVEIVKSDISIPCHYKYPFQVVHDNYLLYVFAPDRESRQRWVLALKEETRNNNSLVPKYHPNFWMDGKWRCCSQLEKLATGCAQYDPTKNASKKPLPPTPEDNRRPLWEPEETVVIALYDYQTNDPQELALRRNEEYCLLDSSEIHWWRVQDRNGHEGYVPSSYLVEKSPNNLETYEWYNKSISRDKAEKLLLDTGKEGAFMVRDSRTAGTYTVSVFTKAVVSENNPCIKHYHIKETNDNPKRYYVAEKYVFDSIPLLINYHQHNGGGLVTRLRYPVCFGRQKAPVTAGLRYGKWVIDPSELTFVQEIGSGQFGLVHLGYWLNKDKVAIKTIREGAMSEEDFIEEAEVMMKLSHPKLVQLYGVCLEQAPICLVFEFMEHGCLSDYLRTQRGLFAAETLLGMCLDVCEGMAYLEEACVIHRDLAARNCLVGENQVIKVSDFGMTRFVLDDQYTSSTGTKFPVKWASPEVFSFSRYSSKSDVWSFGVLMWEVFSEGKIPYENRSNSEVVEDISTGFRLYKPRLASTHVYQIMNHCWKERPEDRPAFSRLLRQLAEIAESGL
# Experiment: ITK Degradation MSD (Meso Scale Discovery) Assay
# Assay type: cell-based
# Conditions: 4 or 6 hrs incubation, best fit IC50 used as DC50
# Experimental: Compound dilution series (7-point, 5-fold dilutions in DMSO, rows B—H with replicate in Column 1/2, 3/4, 5/6, 7, and 8 at 2000× the final required concentrations were prepared in 96-well plate (Falcon, cat. no. 353077). Row A, Column 1-8 were control DMSO. The 2000× solutions ranged from 2 mM to 128 nM (final assay concentration range 1 μM to […]). The 2000×solutions were added to cells in 10 μL volume, for a final DMSO concentration of 0.5% and final assay compound concentration of 1×. For the cells, either human Jurkat (Clone E6-1 ATCC TIB-152) or Motl4 (ATCC CRL-1552), were plated at 1×10^6 cells/mL, 100 μL/well ([…]) in complete RPMI (10% FBS, 1% L-glutamine). The cells were incubated with compounds 26-29 for 4 or 6 hrs at 32° C./6% CO2.
# Following incubation, plates were centrifuged at 1200 rpm for 5 min. Supernatant was removed and 50 μL of cell lysis buffer (MSD Tris lysis buffer (R60TX), complete Mini EDTA-free protease inhibitor (Sigma 11836170001), Protease Inhibitor Cocktail (Sigma, P2714), Phosphatase Inhibitor Cocktail 2 and 3 (Sigma, P5726 and P0044), Benzonase (Sigma, E1014)) was added to each well. Plate was sealed and shook at 4° C. for 30 min. Plate was centrifuged and 45 μL was removed for plate assay.
# Assay plate preparation: Meso Scale Discovery (MSD) multi-array sm spot 96-well plates (Goat anti-Rabbit L^45-RA), were blocked with 3% BSA blocking buffer (3% Bovine Serum Albumin (Sigma A3059)+TBS 0.2% Tween-20) for one hour with gentle rocking at room temperature. Plate was then washed with 200 μL of 1×TBST (TBS 0.2% Tween-20) three times. After the last wash, all liquid was removed and 50 μL per well of capture antibody (abcam ITK Y402-ab32507) was added to plate at a 1:1000 dilution in blocking buffer (see above). Plate was sealed and rocked at room temperature for 2 hrs. Plate was then washed three times with 200 μL of 1×TBST. After the last wash, all liquid was removed and 45 μL of cell lysate (from above) was added to plate. Plate was sealed and rocked overnight at 4° C. The next day, cell lysates were removed, and assay plate was washed three times with 200 μL of 1×TBST. After the last wash, liquid was removed and detection antibody (CST ITK (2F12) #2380) was added at 50 μL per well at a dilution of 1:1000 in blocking buffer. Plate was sealed and rocked at room temperature for 2 hrs. Plate was washed three times with 200 μL of 1×TBST. After the last wash, all liquid was removed, MSD […] sulfo tag (R32AC-1) was diluted to 1:1000 in blocking buffer. 50 μL was added to each well on the plate. Plate was sealed and incubated at room temperature for one hour. Plate was washed three times with 200 μL of 1×TBST. After last wash, all liquid was removed and 150 μL of 1×MSD Read Buffer T (R92PC) was then added to each well for ECL read out.
# For reading ECL signal, plate was read on a Meso Scale Discovery (MSD) MESO Sector S 600 plate reader. Percent ITK was then calculated as described below.
# Percent ITK remaining per sample was calculated as follows: […]
# Using Graphpad Prism, % ITK remaining values were plotted as a function of compound concentration. To determine DC50 and Dmax values, resulting curves were fit to the Prism curve-fitting equation “log(inhibitor) vs response−Variable slope (four parameters)” (reported best fit value IC50 used as DC50).
row,Structure (SMILES),DC50
1,"CN[C@@H](C)C(=O)N[C@H](C(=O)N1CCCC1c1nc(C(=O)c2cccc(OCCOCCC(=O)N3CC([C@@H](c4ccccc4)n4cc(NC(=O)c5n[nH]c6c5C[C@@H]5C(F)(F)[C@]5(C)C6)cn4)C3)c2)cs1)C1CCCCC1 (stereo in doubt) [Compound 5, (4aS,5aR)—N-(1-((S)-(1-(3-(2-(3-(2-((R)-1-((S)-2-cyclohexyl-2-((S)-2-(methylamino)propanamido)acetyl)pyrrolidin-2-yl)thiazole-4-carbonyl)phenoxy)ethoxy)propanoyl)azetidin-3-yl)(phenyl)methyl)-1H-pyrazol-4-yl)-5,5-difluoro-5a-methyl-1,4,4a,5,5a,6-hexahydrocyclopropa[f]indazole-3-carboxamide]",14.6 nM
2,CN[C@@H](C)C(=O)N[C@H](C(=O)N1C[C@@H](NC(=O)CCOCCC(=O)N2CC([C@@H](c3ccccc3)n3cc(NC(=O)c4n[nH]c5c4C[C@@H]4C(F)(F)[C@]4(C)C5)cn3)C2)C[C@H]1C(=O)N[C@@H]1CCCc2ccccc21)C1CCCCC1 [Compound 1],251 nM
3,"CN[C@@H](C)C(=O)N[C@H](C(=O)N1C[C@@H](NC(=O)CCOCCOCCOCCOCCC(=O)N2CC([C@@H](c3ccccc3)n3cc(NC(=O)c4n[nH]c5c4C[C@@H]4C(F)(F)[C@]4(C)C5)cn3)C2)C[C@H]1C(=O)N[C@@H]1CCCc2ccccc21)C1CCCCC1 [Compound 2, (4aS,5aR)—N-(1-((S)-(1-(16-(((3S,5S)-1-((S)-2-cyclohexyl-2-((S)-2-(methylamino)propanamido)acetyl)-5-(((R)-1,2,3,4-tetrahydronaphthalen-1-yl)carbamoyl)pyrrolidin-3-yl)amino)-16-oxo-4,7,10,13-tetraoxahexadecanoyl)azetidin-3-yl)(phenyl)methyl)-1H-pyrazol-4-yl)-5,5-difluoro-5a-methyl-1,4,4a,5,5a,6-hexahydrocyclopropa[f]indazole-3-carboxamide]",79.7 nM
4,"CN[C@@H](C)C(=O)N[C@H](C(=O)N1CCC[C@H]1c1nc(C(=O)c2cccc(OCCCN3CC([C@@H](c4ccccc4)n4cc(NC(=O)c5n[nH]c6c5C[C@@H]5C(F)(F)[C@]5(C)C6)cn4)C3)c2)cs1)C1CCCCC1 [Compound 8, (4aS,5aR)—N-(1-((S)-(1-(3-(3-(2-((S)-1-((S)-2-cyclohexyl-2-((S)-2-(methylamino)propanamido)acetyl)pyrrolidin-2-yl)thiazole-4-carbonyl)phenoxy)propyl)azetidin-3-yl)(phenyl)methyl)-1H-pyrazol-4-yl)-5,5-difluoro-5a-methyl-1,4,4a,5,5a,6-hexahydrocyclopropa[f]indazole-3-carboxamide]",49 nM
5,"CN[C@@H](C)C(=O)N[C@H](C(=O)N1CCC[C@H]1c1nc(C(=O)c2cccc(OCCCCCCN3CC([C@@H](c4ccccc4)n4cc(NC(=O)c5n[nH]c6c5C[C@@H]5C(F)(F)[C@]5(C)C6)cn4)C3)c2)cs1)C1CCCCC1 [Compound 9, (4aS,5aR)—N-(1-((S)-(1-(6-(3-(2-((S)-1-((S)-2-cyclohexyl-2-((S)-2-(methylamino)propanamido)acetyl)pyrrolidin-2-yl)thiazole-4-carbonyl)phenoxy)hexyl)azetidin-3-yl)(phenyl)methyl)-1H-pyrazol-4-yl)-5,5-difluoro-5a-methyl-1,4,4a,5,5a,6-hexahydrocyclopropa[f]indazole-3-carboxamide]",52.9 nM
6,"CN[C@@H](C)C(=O)N[C@H](C(=O)N1CCC[C@H]1c1nc(C(=O)c2cccc(OCCCCCN3CC([C@@H](c4ccccc4)n4cc(NC(=O)c5n[nH]c6c5C[C@@H]5C(F)(F)[C@]5(C)C6)cn4)C3)c2)cs1)C1CCCCC1 [Compound 10, (4aS,5aR)—N-(1-((S)-(1-(5-(3-(2-((S)-1-((S)-2-cyclohexyl-2-((S)-2-(methylamino)propanamido)acetyl)pyrrolidin-2-yl)thiazole-4-carbonyl)phenoxy)pentyl)azetidin-3-yl)(phenyl)methyl)-1H-pyrazol-4-yl)-5,5-difluoro-5a-methyl-1,4,4a,5,5a,6-hexahydrocyclopropa[f]indazole-3-carboxamide]",22.2 nM

# Stronger by DC50, values ahead:
row,DC50,Structure (SMILES)
1,13.6 nM,"CN[C@@H](C)C(=O)N[C@H](C(=O)N1CCCC1c1nc(C(=O)c2cccc(OCCOCCOCCOCCOCCOCCC(=O)N3CC([C@@H](c4ccccc4)n4cc(NC(=O)c5n[nH]c6c5C[C@@H]5C(F)(F)[C@]5(C)C6)cn4)C3)c2)cs1)C1CCCCC1 (stereo in doubt) [Compound 4, (4aS,5aR)—N-(1-((S)-(1-(1-(3-(2-((R)-1-((S)-2-cyclohexyl-2-((S)-2-(methylamino)propanamido)acetyl)pyrrolidin-2-yl)thiazole-4-carbonyl)phenoxy)-3,6,9,12,15-pentaoxaoctadecan-18-oyl)azetidin-3-yl)(phenyl)methyl)-1H-pyrazol-4-yl)-5,5-difluoro-5a-methyl-1,4,4a,5,5a,6-hexahydrocyclopropa[f]indazole-3-carboxamide]"
2,14 nM,"CN[C@@H](C)C(=O)N[C@H](C(=O)N1CCC[C@H]1c1nc(C(=O)c2cccc(OCCOCCOCCOCCOCCC(=O)N3CC([C@@H](c4ccccc4)n4cc(NC(=O)c5n[nH]c6c5C[C@@H]5C(F)(F)[C@]5(C)C6)cn4)C3)c2)cs1)C1CCCCC1 [Compound 6, (4aS,5aR)—N-(1-((S)-(1-(1-(3-(2-((S)-1-((S)-2-cyclohexyl-2-((S)-2-(methylamino)propanamido)acetyl)pyrrolidin-2-yl)thiazole-4-carbonyl)phenoxy)-3,6,9,12-tetraoxapentadecan-15-oyl)azetidin-3-yl)(phenyl)methyl)-1H-pyrazol-4-yl)-5,5-difluoro-5a-methyl-1,4,4a,5,5a,6-hexahydrocyclopropa[f]indazole-3-carboxamide]"
3,4.77 nM,"CN[C@@H](C)C(=O)N[C@H](C(=O)N1CCC[C@H]1c1nc(C(=O)c2cccc(OCCCCN3CC([C@@H](c4ccccc4)n4cc(NC(=O)c5n[nH]c6c5C[C@@H]5C(F)(F)[C@]5(C)C6)cn4)C3)c2)cs1)C1CCCCC1 [Compound 7, (4aS,5aR)—N-(1-((S)-(1-(4-(3-(2-((S)-1-((S)-2-cyclohexyl-2-((S)-2-(methylamino)propanamido)acetyl)pyrrolidin-2-yl)thiazole-4-carbonyl)phenoxy)butyl)azetidin-3-yl)(phenyl)methyl)-1H-pyrazol-4-yl)-5,5-difluoro-5a-methyl-1,4,4a,5,5a,6-hexahydrocyclopropa[f]indazole-3-carboxamide]"
